Test results reported in US6852332B2, “Liquid vitamin composition” (Adisseo France S.A.S., priority 2000, dated 2005).

What was measured:
Format in all cases: physicochemical
[1] = Stability of second liquid vitamin formulation (Example 1), stored at 40° C., HPLC; conditions: for CONC at T = 0: immediately after preparation; for CONC at T = 1 week / CONC at T = 2 weeks / CONC at T = 3 weeks / CONC at T = 4 weeks: stored at 40° C.
Procedure: (§1) The stability of each formulation in the composition each was determined over a 4 weeks period. The concentration of vitamin in the formulation was analysed using standard analytical methods (high performance liquid chromatography). The formulations were stored at 40° C. over the test period.

[2] = Stability of third liquid vitamin formulation (vitamin K3, Example 1), stored at 40° C., HPLC
Procedure: as §1

[3] = Stability of vitamin A in poultry feed (Example 3), 20° C., 80% humidity, HPLC; conditions: four weeks
Procedure: A standard poultry feed comprising a digestible carbohydrate, a source of fat, a source of amino acid, vitamins and minerals as detailed in Table 3.1 below was used in this example Two sources of vitamin A are compared. Mixture A contained the vitamin composition in the liquid form according to the present invention whilst mixture B contained the conventional powdered vitamin composition. The vitamin pre-mixes were added to the feed. The stability of vitamin A in both feed samples was determined over a four weeks period. The feeds were stored at 20° C. and under 80% humidity. The concentration of vitamin A in the feed was measured using conventional analytical methods (high performance liquid chromatography).

[4] = Stability of first liquid vitamin formulation (Example 1), stored at 40° C., HPLC; conditions: for CONC at T = 0: immediately after preparation; for CONC at T = 2 weeks / CONC at T = 4 weeks: stored at 40° C.
Procedure: as §1

Row | Molecule | CONC at T = 0 [1] | CONC at T = 1 week [1] | CONC at T = 2 weeks [1] | CONC at T = 3 weeks [1] | CONC at T = 4 weeks [1] | CONC at T = 0 [4] | CONC at T = 2 weeks [4] | CONC at T = 4 weeks [4] | other results
1 | Cc1cc2nc3c(=O)[nH]c(=O)nc-3n(C[C@H](O)[C@H](O)[C@H](O)CO)c2cc1C [Vitamin B2, riboflavin] | 1 g % g of solution | 1.08 g % g of solution | 1.04 g % g of solution | 1.04 g % g of solution | 1.01 g % g of solution | – | – | – | –
2 | NC(=O)c1cccnc1 [Vitamin B3, niacinamide] | 8 g % g of solution | 7.98 g % g of solution | 7.8 g % g of solution | 7.85 g % g of solution | 8 g % g of solution | – | – | – | –
3 | CC(C)(CO)[C@@H](O)C(=O)NCCCO [Vitamin B5, dexpanthénol] | 2.63 g % g of solution | 2.64 g % g of solution | 2.65 g % g of solution | 2.64 g % g of solution | 2.69 g % g of solution | – | – | – | –
4 | Cc1ncc(CO)c(CO)c1O.OCl [Vitamin B6, pyridoxine chlorohydrate] | 0.355 g % g of solution | 0.32 g % g of solution | 0.33 g % g of solution | 0.333 g % g of solution | 0.329 g % g of solution | – | – | – | –
5 | O=C(O)CCCC[C@@H]1SC[C@@H]2NC(=O)N[C@@H]21 [Vitamin H, biotine] | 0.021 g % g of solution | 0.022 g % g of solution | 0.02 g % g of solution | 0.021 g % g of solution | 0.021 g % g of solution | – | – | – | –
6 | CC1=CC(=O)c2ccccc2C1=O [Vitamin K3, menadione] | – | – | – | – | – | – | – | – | Stability of vitamin K3 in the third liquid formulation (in words) ([2]; 40° C., 4 weeks): stable; CONC at T = 0 ([2]; third formulation, immediately after preparation): 2.00 g % g of solution; CONC at T = 2 weeks ([2]; third formulation, stored at 40° C., 2 weeks): 1.93 g % g of solution; CONC at T = 4 weeks ([2]; third formulation, stored at 40° C., 4 weeks): 1.92 g % g of solution
7 | Oil of Vitamin A | – | – | – | – | – | 120500 UI/g | 118500 UI/g | 120400 UI/g | Stability of vitamin A in feed, liquid pre-mix versus powdered pre-mix (in words) [3]: as stable in the feed containing the liquid pre-mix as in the conventional powdered pre-mix
8 | Oil of Vitamin D3 | – | – | – | – | – | 56200 UI/g | 56160 UI/g | 52800 UI/g | –
9 | Oil of Vitamin E | – | – | – | – | – | 27.6% | 29.1% | 29.3% | –
10 | Vitamin B12 | – | – | – | – | – | 0.0202% | 0.0165% | 0.0157% | –
